Measurements published in paper PMC7321065, “Discovery of New Schiff Bases Tethered Pyrazole Moiety: Design, Synthesis, Biological Evaluation, and Molecular Docking Study as Dual Targeting DHFR/DNA Gyrase Inhibitors with Immunomodulatory Activity” (Molecules, 2020).
In brackets after ≈: the same amount, converted by molar mass. Like-named read-outs stand apart in the source and are kept apart here.

How the values were obtained:
[1] = test system: Escherichia coli; assay: Inhibition zone, agar plate diffusion; type: cell-based; conditions: read-out: Inhibition zone (IZ)
Description: (§1) Antimicrobial activities of the newly formed Schiff bases (6a–d, 7a–d, 8a–d, and 9a–d) and reference drugs were evaluated against three Gram-positive, three Gram-negative, and two fungi strain at Al-Azhar University, Cairo, Egypt. The inhibition zones (IZ, in mm ± standard deviation) and the minimal inhibitory concentration (MIC) (μg/mL) were determined by the conventional paper disk diffusion method.
(§2) In Vitro Antimicrobial Activities
(§3) The antimicrobial activities inhibition zone (IZ, mm±standard deviation) of pyrazole Schiff bases ( 6a-d , 7a-d, 8a-d and 9a-d ) was measurement according to the agar plate diffusion method. Briefly, 100 µl of the […]
(§4) […] of each sample (at 0.5 mg/mL) was added to each well (10 mm diameter holes cut in the agar gel). The plates were incubated for 24 h at 37 °C (for bacteria and yeast) and for 72 h at 27 °C (for filamentous fungi), each test was repeated three times. After incubation, the microorganism's growth was observed. […]
(§5) drugs while Amphotericin B was used as standard antifungal drug. The resulting inhibition zone diameters were measured in millimeters and used as criterion for the antimicrobial activity. Solvent controls (DMSO) were included in every experiment as negative controls. DMSO was used for dissolving […]
(§6) the tested microorganisms. […]

[2] = test system: Pseudomonas aeruginosa; assay: Inhibition zone, agar plate diffusion; type: cell-based; conditions: read-out: Inhibition zone (IZ)
Description: as §1, §2, §3, §4, §5, §6

[3] = test system: Bacillus subtilis; assay: Inhibition zone, agar plate diffusion; type: cell-based; conditions: read-out: Inhibition zone (IZ)
Description: as §1, §2, §3, §4, §5, §6

[4] = test system: Enterococcus faecalis; assay: Inhibition zone, agar plate diffusion; type: cell-based; conditions: read-out: Inhibition zone (IZ)
Description: as §1, §2, §3, §4, §5, §6

[5] = test system: S. aureus ATCC 43300 (MRSA); assay: MIC/MBC against MDRB, paper disk diffusion; type: cell-based; conditions: Staphylococcus aureus
Text: (§7) The inhibition zone (IZ, mm±standard deviation) of pyrazole Schiff bases ( 6b, 7b, 7c, 8a, 8d and 9b) was
(§8) measurement according to the agar plate diffusion method against a panel of multidrug-resistant bacteria
(MDRB). […]

[6] = test system: P. aeruginosa ATCC BAA-2111; assay: MIC/MBC against MDRB, paper disk diffusion; type: cell-based; conditions: Pseudomonas aeruginosa, ATCCBAA2111
Text: as §7, §8
(MDRB). […]

[7] = test system: S. aureus ATCC 33591; assay: MIC/MBC against MDRB, paper disk diffusion; type: cell-based; conditions: Staphylococcus aureus, ATCC33591
Text: as §7, §8
(MDRB). […]

[8] = test system: E. coli ATCC BAA-196; assay: MIC/MBC against MDRB, paper disk diffusion; type: cell-based; conditions: Escherichia coli, ATCCBAA196
Text: as §7, §8
(MDRB). […]

[9] = test system: Escherichia coli; assay: MIC/MBC, paper disk diffusion; type: cell-based; conditions: Escherichia coli
Description: as §1
(§9) In Vitro Antimicrobial Activities […]
(§10) DMSO was used for dissolving […]
(§11) the tested microorganisms.
(§12) The minimum inhibitory concentration (MIC), the minimum bactericidal concentration (MBC, µg/ml) and […]
(§13) and 9b) were determined by the conventional technique termed paper disk diffusion, by applying paper […]
(§14) Bacteria were grown on nutrient agar medium, while fungi and yeast were grown on Sabouraud agar medium. The purified streptomycin was dissolved in […]
(§15) inoculated with test organism. Growth inhibition was examined after 24 hr. from incubation at 37 °C for bacteria and after 72 hr. incubation at 27 °C for fungi and yeast. Each test was repeated three times. MIC was expressed as the lowest concentration inhibiting test organism’s growth. […]

[10] = test system: Salmonella typhi; assay: MIC/MBC, paper disk diffusion; type: cell-based; conditions: Salmonella enterica, S. typhi
Description: as §1, §9, §10, §11, §12, §13, §14, §15

[11] = test system: Pseudomonas aeruginosa; assay: MIC/MBC, paper disk diffusion; type: cell-based; conditions: Pseudomonas aeruginosa
Description: as §1, §9, §10, §11, §12, §13, §14, §15

[12] = test system: Bacillus subtilis; assay: MIC/MBC, paper disk diffusion; type: cell-based
Description: as §1, §9, §10, §11, §12, §13, §14, §15

[13] = test system: Staphylococcus aureus; assay: MIC/MBC, paper disk diffusion; type: cell-based; conditions: Staphylococcus aureus
Description: as §1, §9, §10, §11, §12, §13, §14, §15

[14] = test system: Enterococcus faecalis; assay: MIC/MBC, paper disk diffusion; type: cell-based
Description: as §1, §9, §10, §11, §12, §13, §14, §15

[15] = test system: mammary gland breast cancer cell line (MCF-7); assay: Antiproliferative activity, MTT assay; type: cell-based, human; conditions: Homo sapiens, MCF7, 48 h, read-out: IC50 MCF-7
Description: (§16) 3-[4, 5-Dimethyl-2-thiazolyl)-2, 5-diphenyl-2 H-tetrazolium bromide (MTT) protocol is based on the cleavage of the tetrazolium salt by mitochondrial dehydrogenases in viable cells. Cells were dispensed in a 96 well sterile microplate (5 x 10^4 cells/well), and incubated at 37 °C with series of different concentrations, in DMSO, of each tested compound or Doxorubicin ® (positive control) for 48 h in a serum free medium prior to the MTT assay. After incubation, media were carefully removed, 40 µL of MTT (2.5 mg/mL) were added to each well and then incubated for an additional 4 h. The purple formazan dye crystals were solubilized by the addition of 200 µL of DMSO. The absorbance was measured at 590 nm using a SpectraMax® Paradigm® Multi-Mode microplate reader. The relative cell viability was expressed as the mean percentage of viable cells compared to the untreated control cells.
(§17) All experiments were conducted in triplicate and repeated in three different days. All the values were represented as mean ± SD. IC 50s were determined by probit analysis using SPSS software program (SPSS

[16] = test system: hepatocellular carcinoma cell line (HepG2); assay: Antiproliferative activity, MTT assay; type: cell-based, human; conditions: Homo sapiens, HepG2, 48 h, read-out: IC50 HepG-2
Description: as §16, §17

[17] = test system: Candida albicans; assay: MIC/MFC, paper disk diffusion; type: cell-based; conditions: Candida albicans
Description: as §1, §9, §10, §11, §12, §13, §14, §15

[18] = test system: Fusarium oxysporum; assay: MIC/MFC, paper disk diffusion; type: cell-based; conditions: Fusarium oxysporum
Description: as §1, §9, §10, §11, §12, §13, §14, §15

[19] = test system: E. coli ATCC BAA-196; assay: Inhibition zone against MDRB, agar plate diffusion; type: cell-based
[20] = test system: Candida albicans; assay: Inhibition zone, agar plate diffusion; type: cell-based; conditions: read-out: Inhibition zone (IZ)
Description: as §1, §2, §3, §4, §5, §6
(§18) Bacteria were grown on nutrient agar medium, while fungi and yeast were grown on Sabouraud agar medium. […]

[21] = test system: Salmonella typhi; assay: Inhibition zone, agar plate diffusion; type: cell-based; conditions: Salmonella enterica, St, mm ± standard deviation, sample at 0.5 mg/mL, read-out: Inhibition zone (IZ)
Description: as §1, §2, §3, §4, §5, §6, §18

[22] = test system: Staphylococcus aureus; assay: Inhibition zone, agar plate diffusion; type: cell-based; conditions: read-out: Inhibition zone (IZ)
Description: as §1, §2, §3, §4, §5, §6, §18

[23] = test system: Fusarium oxysporum; assay: Inhibition zone, agar plate diffusion; type: cell-based; conditions: read-out: Inhibition zone (IZ)
Description: as §1, §2, §3, §4, §5, §6, §18

[24] = test system: P. aeruginosa ATCC BAA-2111; assay: Inhibition zone against MDRB, agar plate diffusion; type: cell-based
[25] = test system: S. aureus ATCC 33591; assay: Inhibition zone against MDRB, agar plate diffusion; type: cell-based
[26] = test system: S. aureus ATCC 43300 (MRSA); assay: Inhibition zone against MDRB, agar plate diffusion; type: cell-based

## COc1ccc(Nc2n[nH]c(N=Cc3ccc(N4CCCCC4)cc3)c2C(=O)Nc2ccc(Cl)cc2)cc1 [8d, N-(p-Chlorophenyl)-3-(p-methoxyphenylamino)-5-(4-(piperidin-1-yl)benzylideneamino)-1H-pyrazole-4-carboxamide]
[1]
  zone of inhibition at 500 µg/mL: 26 ± 0.11 mm
[2]
  zone of inhibition at 500 µg/mL: 21 ± 0.2 mm
[3]
  zone of inhibition at 500 µg/mL: 24 ± 0.5 mm
[4]
  zone of inhibition at 500 µg/mL: 23 ± 0.65 mm
[5]
  MBC: 31.2 mg/L (≈ 59.1 µM)
  MIC: 15.6 mg/L (≈ 29.5 µM)
[6]
  MBC: 11.9 mg/L (≈ 22.4 µM)
  MIC: 6.25 mg/L (≈ 11.8 µM)
[7]
  MBC: 7.41 mg/L (≈ 14 µM)
  MIC: 3.9 mg/L (≈ 7.37 µM)
[8]
  MBC: 31.2 mg/L (≈ 59.1 µM)
  MIC: 15.6 mg/L (≈ 29.5 µM)
[9]
  MIC: 7.81 mg/L (≈ 14.8 µM)
[9]; E. coli
  MBC: 15.6 mg/L (≈ 29.5 µM)
[10]
  MIC: 18.5 mg/L (≈ 35 µM)
[10]; read-out: MBC
  MBC: 36.5 mg/L (≈ 69 µM)
[11]
  MIC: 27.8 mg/L (≈ 52.5 µM)
[11]; P. aeruginosa
  MBC: 55.5 mg/L (≈ 105 µM)
[12]; B. subtilis
  Fold more potent than Tetracycline (MIC): 8 fold
[12]; Bacillus subtilis
  MIC: 3.9 mg/L (≈ 7.37 µM)
[12]; Bacillus subtilis, B. subtilis
  MBC: 6.63 mg/L (≈ 12.5 µM)
[13]
  MIC: 7.81 mg/L (≈ 14.8 µM)
[13]; S. aureus
  MBC: 15.6 mg/L (≈ 29.5 µM)
[14]
  MIC: 15.6 mg/L (≈ 29.5 µM)
[14]; E. faecalis
  MBC: 31.2 mg/L (≈ 59.1 µM)
[15]
  IC50: 3.69 ± 0.22 µM
[16]
  IC50: 2.63 ± 0.44 µM
[17]
  MFC: 17.6 mg/L (≈ 33.2 µM)
  MIC: 9.25 mg/L (≈ 17.5 µM)
[18]
  MFC: 56.2 mg/L (≈ 106 µM)
  MIC: 31.2 mg/L (≈ 59.1 µM)
[19]
  Mean Diameter of Inhibition Zone against MDRB: 16 ± 0.11 mm
[20]
  zone of inhibition at 500 µg/mL: 25 ± 0.33 mm
[21]
  zone of inhibition at 500 µg/mL: 23 ± 0.65 mm
[22]
  zone of inhibition at 500 µg/mL: 25 ± 0.77 mm
[23]
  zone of inhibition at 500 µg/mL: 21 ± 0.16 mm
[24]
  Mean Diameter of Inhibition Zone against MDRB: 25 ± 0.99 mm
[25]
  Mean Diameter of Inhibition Zone against MDRB: 21 ± 0.23 mm
[26]
  Mean Diameter of Inhibition Zone against MDRB: 18 ± 0.5 mm

## CCn1cc(C(=O)O)c(=O)c2cc(F)c(N3CCNCC3)cc21 [Norfloxacin, reference compound]
[5]; S. aureus ATCC 43300, read-out: MBC
  MBC: 2.81 mg/L (≈ 8.8 µM)
[5]; S. aureus ATCC 43300, read-out: MIC
  MIC: 1.25 mg/L (≈ 3.91 µM)
[6]; P. aeruginosa ATCC BAA-2111, read-out: MBC
  MBC: 4.69 mg/L (≈ 14.7 µM)
[6]; P. aeruginosa ATCC BAA-2111, read-out: MIC
  MIC: 3.13 mg/L (≈ 9.8 µM)
[7]; S. aureus ATCC 33591, read-out: MBC
  MBC: 1.56 mg/L (≈ 4.89 µM)
[7]; S. aureus ATCC 33591, read-out: MIC
  MIC: 0.78 mg/L (≈ 2.44 µM)
[8]; E. coli ATCC BAA-196, read-out: MBC
  MBC: 3.53 mg/L (≈ 11.1 µM)
[8]; E. coli ATCC BAA-196, read-out: MIC
  MIC: 1.57 mg/L (≈ 4.92 µM)
[19]
  Mean Diameter of Inhibition Zone against MDRB: 27 ± 0.98 mm
[24]
  Mean Diameter of Inhibition Zone against MDRB: 24 ± 0.47 mm
[25]
  Mean Diameter of Inhibition Zone against MDRB: 26 ± 0.5 mm
[26]
  Mean Diameter of Inhibition Zone against MDRB: 25 ± 0.50 mm
